According to paper PMC3907537, “Evaluation of the Endothelin Receptor Antagonists Ambrisentan, Bosentan, Macitentan, and Sitaxsentan as Hepatobiliary Transporter Inhibitors and Substrates in Sandwich-Cultured Human Hepatocytes” (PLoS ONE, 2014):

System: sandwich-cultured human hepatocytes
Test: ERA effect on hepatobiliary disposition of d8-taurocholate (B-CLEAR sandwich culture)
Type: cell-based
Settings: n = 3 donors; for d8-TCA cellular accumulation (% control) / d8-TCA total accumulation (% control): 2.5 µM d8-TCA, 10 min
Experimental: Sandwich-cultured human hepatocytes were obtained from Celsis/IVT (Baltimore, MD) or Life Technologies (Durham, NC). Donors were male (n = 3) and female (n = 1) between the ages of 31 and 62 years old. Hepatic uptake, biliary excretion and in vitro biliary clearance (Clb) were determined using the B-CLEAR® hepatocyte sandwich culture model as described by Liu et al., 1999 [34]. In this system, hepatocytes form functional bile canalicular networks while maintaining the expression and function of key uptake and efflux transporters. The canalicular system of bile pockets remains separate from the cellular culture media due to tight junctions between cells. The integrity of these tight junctions is maintained in the presence of calcium (Plus (+) buffer) while in the absence of calcium (Minus (−) buffer), these tight junctions open and release the contents of the canalicular network into the media.
A dose solution containing 2.5 µM d8-taurocholic acid (d8-TCA) was prepared in Plus (+) Buffer. Co-incubation solutions were prepared by combining d8-TCA dose solution and ERA or rifamycin-SV. Hepatocytes were washed and then conditioned for 10 min in warm Plus (+) or Minus (−) buffer with and without ERA or rifamycin-SV. Pre-incubation solutions were then removed and replaced with dose or co-incubation solutions and incubated for 10 min at 37°C. Following this 10 minute incubation, the dose or co-incubation solutions were removed and the cells were then washed three times with ice-cold Plus (+) buffer. The plates were then frozen at −80°C until processed for bioanalysis.
Study samples were stored in their original 24-well plates at −80°C until prepared for analysis. A volume of 500 µL of cell lysis solution (70∶30 methanol:water) containing 25 nM internal standard was added to each well and mixed for 20 min of mixing. The volume in each well was then transferred to a 96-well filter plate stacked on a Greiner deep well collection plate. The filter plate/collection plate was then centrifuged at 2000 rcf for 5 min. The filtrate was then evaporated to dryness under nitrogen. Samples were reconstituted in 200 µL of sample diluent (60∶40 methanol:10 mM ammonium acetate, native pH), sealed, and placed on a plate shaker for 15 min. These samples were then transferred to a Whatman 96-well 0.45 µm PVDF filter plate stacked on a Costar 3956 plate (HPLC injection plate), centrifuged at 2000 rcf for 2–3 min, and sealed with a silicon cap mat prior to LC-MS/MS analysis. d8-TCA standard spiking solutions were prepared in 50∶50 methanol:water. For a given lysate standard or control, 10 µL was added to each well of a previously frozen analytical plate. Standards representing 0.5–100 pmoles/well and QC’s at the LLQ and ULQ were prepared. These lysate standards and controls were then further processed as described above for unknown study samples. Prepared samples were filtered and analyzed by LC-MS/MS using a Shimadzu binary HPLC system (Columbia, MD) and tandem mass spectrometry using Thermo Electron TSQ® Quantum Discovery MAX™ (Waltham, MA) with an Ion Max ESI source operating in negative ion electrospray ionization mode. Results for unknowns and QCs were calculated using a standard curve based on an internal standard processing method.
Data calculations were performed using Microsoft Excel, 2010 with all values reported as mean ± standard deviation (SD). Statistical comparisons across ERA treatments were performed using analysis of variance (ANOVA) with Fisher’s PLSD post hoc analysis (Statview 5.0, SAS Institute, Cary NC); statistical significance was considered to be P<0.05. All mass values were normalized to mg protein by taking the average protein mass in the taurocholate plate determined using a BCA protein assay (Pierce Biotechnology, Rockford, IL). Cellular accumulation determined in Minus (−) buffer (Accumulation Minus (−) Buffer) represents the total mass of analyte inside the hepatocyte at the end of the incubation time period. […]

| SMILES | d8-TCA cellular accumulation (% control) (11 µM ERA) [%] | d8-TCA total accumulation (% control) (11 µM ERA) [%] | d8-TCA in vitro biliary clearance (Clb), percent of control (11 µM ERA) [%] | d8-TCA total accumulation (% control) (33 µM ERA) [%] | d8-TCA in vitro biliary clearance (Clb), percent of control (33 µM ERA) [%] | d8-TCA cellular accumulation (% control) (100 µM ERA) [%] | d8-TCA total accumulation (% control) (100 µM ERA) [%] | d8-TCA biliary efflux (BEI), percent of control (100 µM ERA) [%] | d8-TCA in vitro biliary clearance (Clb), percent of control (100 µM ERA) [%] | d8-TCA cellular accumulation (% control) (33 µM ERA) [%] | d8-TCA biliary efflux (BEI), percent of control (33 µM ERA) [%] |
| --- | --- | --- | --- | --- | --- | --- | --- | --- | --- | --- | --- |
| COc1ccccc1Oc1c(NS(=O)(=O)c2ccc(C(C)(C)C)cc2)nc(-c2ncccn2)nc1OCCO [bosentan] | 66.5±5.3 | 68.6±1.5 | 69.2±0.1 | 62.6±6.6 | 58.7±11.4 | 44.5±3.6 | 31.7±5.9 | 85.2±13.9 | 27.0±9.3 |  |  |
| CCCNS(=O)(=O)Nc1ncnc(OCCOc2ncc(Br)cn2)c1-c1ccc(Br)cc1 [macitentan] |  |  |  | 23.6±0.5 | 17.2±2.3 | 6.2±0.5 | 4.8±0.2 |  | 4.3±0.5 | 42.1±4.5 | 72.9±8.0 |
| COC(c1ccccc1)(c1ccccc1)[C@H](Oc1nc(C)cc(C)n1)C(=O)O [ambrisentan] |  |  |  |  |  | 52 |  |  |  | 71 |  |
